In this assay the test system is P388 leukemia ip, CD2F1 mice, survival T/C. In words: NCI In Vivo Anticancer Drug Screen. Data for tumor model P388 Leukemia (intraperitoneal) in CD2F1 (CDF1) mice. Particulars: endpoint: median survival time, higher = longer survival. The method in brief: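 Mice carrying the transplanted tumor received test compound or vehicle. Survival was recorded in each group, and the value is the treated-group measurement divided by that of the vehicle-treated control group.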

The mark [1] stands for this setting: dose: 25.0 mg/kg/injection, schedule: Q01DX009 (ip), vehicle: Klucel (hydroxypropylcellulose) (HPC).
Where [2] appears, read: dose: 50.0 mg/kg/injection, schedule: Q01DX009 (ip), vehicle: Klucel (hydroxypropylcellulose) (HPC).
The mark [3] stands for this setting: dose: 100.0 mg/kg/injection, schedule: Q01DX009 (ip), vehicle: Klucel (hydroxypropylcellulose) (HPC).
Setting [4] is: dose: 200.0 mg/kg/injection, schedule: Q01DX009 (ip), vehicle: Klucel (hydroxypropylcellulose) (HPC).
The mark [5] stands for this setting: dose: 50.0 mg/kg/injection, schedule: Q01DX005 (ip), vehicle: saline with Tween-80.
Setting [6] is: dose: 100.0 mg/kg/injection, schedule: Q01DX005 (ip), vehicle: saline with Tween-80.
The mark [7] stands for this setting: dose: 200.0 mg/kg/injection, schedule: Q01DX005 (ip), vehicle: saline with Tween-80.
Setting [8] is: dose: 50.0 mg/kg/injection, schedule: Q01DX009 (ip), vehicle: saline with Tween-80.
Setting [9] is: dose: 100.0 mg/kg/injection, schedule: Q01DX009 (ip), vehicle: saline with Tween-80.
The mark [10] stands for this setting: dose: 200.0 mg/kg/injection, schedule: Q01DX009 (ip), vehicle: saline with Tween-80.
Where [11] appears, read: dose: 12.5 mg/kg/injection, schedule: Q01DX009 (ip), vehicle: Klucel (hydroxypropylcellulose) (HPC).
[12] abbreviates: dose: 12.5 mg/kg/injection, schedule: Q01DX005 (ip), vehicle: Klucel (hydroxypropylcellulose) (HPC).
Setting [13] is: dose: 25.0 mg/kg/injection, schedule: Q01DX005 (ip), vehicle: Klucel (hydroxypropylcellulose) (HPC).
The mark [14] stands for this setting: dose: 50.0 mg/kg/injection, schedule: Q01DX005 (ip), vehicle: Klucel (hydroxypropylcellulose) (HPC).
[15] abbreviates: dose: 100.0 mg/kg/injection, schedule: Q01DX005 (ip), vehicle: Klucel (hydroxypropylcellulose) (HPC).
[16] abbreviates: dose: 6.25 mg/kg/injection, schedule: Q01DX009 (ip), vehicle: water.
Setting [17] is: dose: 12.5 mg/kg/injection, schedule: Q01DX009 (ip), vehicle: water.
Setting [18] is: dose: 25.0 mg/kg/injection, schedule: Q01DX009 (ip), vehicle: water.
The mark [19] stands for this setting: dose: 50.0 mg/kg/injection, schedule: Q01DX009 (ip), vehicle: water.

Values joined by “and” are separate entries in the source; they are usually repeats but may differ in a detail not shown here. Equal entries are not always repeated. Inconclusive results and toxic doses are left out.

Regarding `CN(C)c1ccc(/C=C2\C=Cc3ccccc32)cc1`, the T/C by setting is: (dose: 100.0 mg/kg/injection, schedule: Q04DX003 (ip), vehicle: saline with Tween-80) 109 % of control; (dose: 200.0 mg/kg/injection, schedule: Q04DX003 (ip), vehicle: saline with Tween-80) 90 % of control; (dose: 400.0 mg/kg/injection, schedule: Q04DX003 (ip), vehicle: saline with Tween-80) 90 % of control.
`NNC(=O)COCC(=O)NN`: the T/C under setting [1] was 106 % of control, the T/C under setting [2] is 100 % of control, the T/C under setting [3] is 104 % of control and the T/C under setting [4] was 100 % of control.
Regarding `COC(=O)C1=C(C(=O)OC)[C@@H]2CC[C@H]1[C@H]1[C@@H]2N=NN1c1ccccc1`, the T/C is 106 % of control under setting [5], 86 % of control under setting [6] and 99 % of control under setting [7].
Take `CCCCC/C(C)=C\CBr`: the T/C was 96 % of control (dose: 25.0 mg/kg/injection, schedule: Q01DX009 (ip), vehicle: saline with Tween-80); 99 % of control under setting [8]; 89 % of control under setting [9].
Turning to `c1nnc(NCNc2nncs2)s1`, the T/C runs as follows: (dose: 100.0 mg/kg/injection, schedule: Q04DX003 (ip), vehicle: saline) 240 % of control; (dose: 200.0 mg/kg/injection, schedule: Q04DX003 (ip), vehicle: saline) 109 % of control.
As to `N=C(N)c1ccc2[nH]c(/C=C/c3cc4cc(C(=N)N)ccc4o3)cc2c1`, the T/C runs as follows: (dose: 25.0 mg/kg/injection, schedule: Q04DX003 (ip), vehicle: suspension in saline) 163 % of control; (dose: 50.0 mg/kg/injection, schedule: Q04DX003 (ip), vehicle: suspension in saline) 160 % of control; (dose: 100.0 mg/kg/injection, schedule: Q04DX003 (ip), vehicle: suspension in saline) 163 % of control.
In the case of `CCCCCCCCCCCCOc1ccc(Br)cc1C(=O)O`, the T/C is 100 % of control under setting [8], 112 % of control under setting [9] and 105 % of control under setting [10].
Regarding `[N-]=[N+]=Nc1ccc(NCCN2C(=O)C=CC2=O)c([N+](=O)[O-])c1`, the T/C under setting [5] was 103 % of control, the T/C under setting [6] was 101 % of control and the T/C under setting [7] was 101 % of control.
As for `CC1(C)CN(Cc2ccccc2)C2OC1N(Cc1ccccc1)CC2(C)C`, the T/C by setting is: under setting [2], 102 % of control; under setting [3], 99 % of control; under setting [4], 96 % of control.
The corresponding values for `N#CC1=C(N)Oc2c(c(-c3ccccc3)nn2-c2ccccc2)C1c1ccccc1` (stereo unspecified) are 100 % of control, 105 % of control and 100 % of control.
`NC1CC2CCCCC2CC1(O)c1ccccc1` (stereo unspecified): the T/C is, setting by setting: under setting [11], 98 % of control; under setting [1], 107 % of control; under setting [2], 107 % of control.
Take `CC1(C)CC2([Si](C)(C)C)C(=O)NC(=O)NC12` (stereo unspecified): the T/C by setting is: under setting [12], 105 % of control; under setting [13], 99 % of control; under setting [14], 99 % of control; under setting [15], 97 % of control.
`CCC(C)([N+](=O)[O-])[N+](=O)[O-]`: the T/C (dose: 0.19 mg/kg/injection, schedule: Q01DX009 (ip), vehicle: Klucel (hydroxypropylcellulose) (HPC)) is 102 % of control; the T/C (dose: 0.39 mg/kg/injection, schedule: Q01DX009 (ip), vehicle: Klucel (hydroxypropylcellulose) (HPC)) is 97 % of control; the T/C (dose: 0.78 mg/kg/injection, schedule: Q01DX009 (ip), vehicle: Klucel (hydroxypropylcellulose) (HPC)) is 99 % of control and 96 % of control.
As for `NC(CCC(=O)NC(CSCNC(=O)Nc1ccc(Cl)cc1)C(=O)NCC(=O)O)C(=O)O` (stereo unspecified), the T/C by setting is: (dose: 60.0 mg/kg/injection, schedule: Q01DX005 (ip), vehicle: saline) 97 % of control; (dose: 120.0 mg/kg/injection, schedule: Q01DX005 (ip), vehicle: saline) 97 % of control.
With `NNP(=S)(NN)Oc1ccccc1`, the T/C reads like this: (dose: 6.25 mg/kg/injection, schedule: Q01DX005 (ip), vehicle: Klucel (hydroxypropylcellulose) (HPC)) 96 % of control; under setting [12], 114 % of control; under setting [13], 105 % of control.
On to `O=NNc1nc2ccccc2s1`, for which the T/C is 97 % of control (dose: 1.56 mg/kg/injection, schedule: Q01DX009 (ip), vehicle: water); 100 % of control and 105 % of control (dose: 3.12 mg/kg/injection, schedule: Q01DX009 (ip), vehicle: water); 106 % of control and 109 % of control under setting [16]; 100 % of control and 92 % of control under setting [17]; 102 % of control and 106 % of control under setting [18]; 92 % of control under setting [19].
As to `COc1ccc2nccc(CO)c2c1`, the T/C under setting [14] was 102 % of control; the T/C under setting [15] was 102 % of control; the T/C (dose: 200.0 mg/kg/injection, schedule: Q01DX005 (ip), vehicle: Klucel (hydroxypropylcellulose) (HPC)) is 96 % of control.
With `N#CC1=C(Nc2ccccc2Cl)SC(c2c(Cl)cccc2Cl)NC1=O` (stereo unspecified), the T/C is 90 % of control (dose: 60.0 mg/kg/injection, schedule: Q01DX005 (ip), vehicle: Klucel (hydroxypropylcellulose) (HPC)); 100 % of control (dose: 120.0 mg/kg/injection, schedule: Q01DX005 (ip), vehicle: Klucel (hydroxypropylcellulose) (HPC)); 93 % of control (dose: 240.0 mg/kg/injection, schedule: Q01DX005 (ip), vehicle: Klucel (hydroxypropylcellulose) (HPC)).
For `O=S(=O)(NC(Cc1nc2ccccc2[nH]1)c1nc2ccccc2[nH]1)c1ccccc1` (stereo unspecified), the T/C is 95 % of control under setting [8], 89 % of control under setting [9] and 93 % of control under setting [10].
Consider `N=C(N)n1ncc2c1CCCC2=O`, for which the T/C is 100 % of control (dose: 60.0 mg/kg/injection, schedule: Q01DX005 (ip), vehicle: saline with Tween-80); 105 % of control (dose: 120.0 mg/kg/injection, schedule: Q01DX005 (ip), vehicle: saline with Tween-80); 96 % of control (dose: 240.0 mg/kg/injection, schedule: Q01DX005 (ip), vehicle: saline with Tween-80).
Turning to `CCCCCCCCCCCC[N+](C)(C)C` (tested in a mixture with another compound), the T/C runs as follows: (dose: 6.25 mg/kg/injection, schedule: Q01DX009 (ip), vehicle: Klucel (hydroxypropylcellulose) (HPC)) 113 % of control; under setting [11], 114 % of control; under setting [1], 114 % of control.
Take `O=C(NC(C(=O)NC(C(=O)O)C1CC(Cl)=NO1)C1CC(Cl)=NO1)OCC1c2ccccc2-c2ccccc21` (stereo unspecified): the T/C is 120 % of control (dose: 5.0 mg/kg/injection, schedule: Q04DX003 (ip), vehicle: other); 150 % of control (dose: 12.5 mg/kg/injection, schedule: Q04DX003 (ip), vehicle: other); 160 % of control (dose: 25.0 mg/kg/injection, schedule: Q04DX003 (ip), vehicle: other); 172 % of control (dose: 40.0 mg/kg/injection, schedule: Q04DX003 (ip), vehicle: other); 222 % of control (dose: 50.0 mg/kg/injection, schedule: Q04DX003 (ip), vehicle: other); 201 % of control (dose: 80.0 mg/kg/injection, schedule: Q04DX003 (ip), vehicle: other). Further, the T/C (dose: 160.0 mg/kg/injection, schedule: Q04DX003 (ip), vehicle: other) was 158 % of control.
For `ClCCc1cnc[nH]1`, the T/C was 101 % of control under setting [16]; 101 % of control under setting [17]; 108 % of control under setting [18]; 110 % of control under setting [19]; 95 % of control (dose: 100.0 mg/kg/injection, schedule: Q01DX009 (ip), vehicle: water).
As for `CC(=O)OC1CC2C(=[N+]=[N-])C(=O)C1(C)C2(C)C` (stereo unspecified), the T/C reads like this: under setting [5], 108 % of control; under setting [6], 107 % of control; under setting [7], 108 % of control.
